Data on one compound can be found in patent US20050143468A1, “Method of treating vascular endothelial growth factor mediated vascular disorders” (priority 2002, published 2005).

Each structure is given as a SMILES string.

For the test, the system named is choroidal neovascularization. The experiment in a line: choroidal NV in a mouse model, topical administration. As to conditions: applicant's previous findings. In kind it is in vivo.

Regarding `NC(=O)Cc1cccc(C(=O)c2ccccc2)c1N` [nepafenac], the “choroidal NV” value is “inhibited”.
